The values that follow come from PMC7008171 (Frontiers in Pharmacology, 2020).

Series [1] in a line: Pharmacokinetic study in Beagle dogs (i.v., i.g., supralingual, sublingual; crossover, single dose).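 Further: Single-dose crossover across four periods with one-week washout, plasma drug levels quantified by LC-MS/MS in positive ESI mode, lower quantification limit 0.2 ng/mL.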 The following applies: three-compartmental fit of i.v. profile in Beagle dogs.
Procedure: (§1) The dogs were kept still for 2 min. A dose of 1 mg/body was administrated.
(§2) Four healthy Beagle dogs (male:female, 1:1) weighting 9.04 ± 1.88 kg (Certificate No. 20150005001131), purchased from Shanghai Jambo Biological Technology Co., Ltd (Shanghai, China), were used in this study. The study protocol was reviewed and approved by the Animal Management and Ethic Committee of the China State Institute of Pharmaceutical Industry. Dogs were housed individually in stainless steel cages. Tap water was given ad-libitum and food was provided once daily. Dogs were fasted for 12 h before drug administration. Blank blood samples were withdrawn prior to the administration of the drugs. Subsequently, blood samples were taken from forelimb vein at 0.167, 0.333, 0.5, 0.75, 1.0, 1.5, 2.0, 3.0, 4.0, 6.0, 8.0, 12, 24, and 32 h into heparin sodium-containing centrifuge tubes which were then centrifuged for 5 min at 3,000 rpm. The supernatant was collected and stored at -20 °C in the refrigerator until further analysis.
(§3) The main pharmacokinetic parameters of maximum plasma concentration (Cmax), peak time (Tmax), area under the concentration-time curve from 0 h to the time of last measurable concentration (AUC0-t), and AUC from 0 to infinity (AUC0-∞), mean residue time (MRT), apparent volume of distribution (Vd), elimination half-life (t1/2), and in vivo clearance (CL) were calculated by non-compartmental approach using the software of DAS 2.0 ([Cheng et al., 2016]).
(§4) Calibration curves were constructed in the concentration range of 0.2–200 ng/ml with a lower limit of quantification (LLOQ) of 0.2 ng/ml. […] The HPLC system (Shimadzu Co. Ltd, Kyoto, Japan) equipped with a triple quadruple mass spectrometer (Shimadzu Co. Ltd, Kyoto, Japan) operating with ESI in the positive mode was used for the quantification of the analytes. Mobile phases consisted of methanol and water (35:65, v/v), both containing 0.05% formic acid and 5 mM ammonium formate. The flow rate was set at 0.3 ml/min. Ten μl of the aliquot was injected into the Inspire C18 column (2.1 mm×50 mm, 3 μm, Dikma Technologies Inc, Beijing, China) at a column oven of 40 °C. […] Direct protein precipitation using acetonitrile was used for the extraction of analytes from dog plasma.
The conditions of series [2]: ref PMDA label, 2018; cited from earlier work.
A further series in a line: in vivo. The following applies: both, Beagle, dog, plasma, 1 mg.
The conditions of series [3]: taken orally; ref Huang et al., 1993; de Leon et al., 2010; Shimizu et al., 2017; cited from earlier work.
Details of series [4]: method as in Mannens et al., 1994. The following applies: dog plasma; ref Mannens et al., 1994; cited from earlier work.
The conditions of series [5]: sublingual tablets (Intermezzo), OCCAT model; ref Xia et al., 2015; cited from earlier work.

Several values for one entry are separate records, joined by “and”; a condition that tells them apart may be missing. Equal entries are not always repeated. Marks after values point to notes of the source that are not given here.

Procedure for in vivo: as §1, §2, §3, §4

Turning to `Cc1nc2n(c(=O)c1CCN1CCC(c3noc4cc(F)ccc34)CC1)CCCC2` [risperidone], in series [1], the K12 was 16.352 ^e h^-1, the K13 is 0.4625 ^e h^-1, the K21 is given as 9.007 ^e h^-1 and the K31 is on record as 0.4103 ^e h^-1. For the same compound, in series [1], the “V2 (volume of distribution of the first peripheral compartment)” value was 0.5699 ^e L/kg and the “V3 (volume of distribution of the second peripheral compartment)” value is given as 0.3538 ^e L/kg. For the same compound, the “Solubility (pH 6.8)” value in series [2] is reported as 0.9 ^d mg/ml. For the same compound, in “in vivo”, the AUC(0-inf) (usually total exposure, with the tail of the curve extrapolated) is 102 ± 43.3 ng·h/mL; the exposure AUC(0-t) (in general, the area under the concentration-time curve up to a stated or last time point) is 98.9 ± 40.9 ng·h/mL; the peak level (Cmax) was 52.6 ± 10.6 ng/mL; the MRT inf (commonly the average time that molecules of a dose stay in the body) is 1.93 ± 0.52 h. For the same compound, in the series “in vivo”, the MRT last – broadly, a mean duration of stay, worked out from the concentration-time curve – was determined as 1.78 ± 0.41 h; the Tmax (as a rule, the time at which the peak concentration occurs) was 0.67 ± 0.38 h; the Vd (in general, the apparent volume that relates the amount in the body to the concentration in plasma or blood) came out at 17.8 ± 3.06 L; the clearance (usually a measure of how efficiently the substance is removed, as volume per time) was 184 mL/min. Further, the half-life (as a rule, the time in which the quantity being followed falls by half) in “in vivo” is 1.21 ± 0.4 h. Moreover, in “in vivo” (iv), the AUC(0-inf) was found to be 179 ± 115 ng·h/mL; the AUC(0-t) is 177 ± 113 ng·h/mL; the Cmax (in general, the peak of the concentration-time curve) was determined as 215 ± 56.4 ng/mL; the MRT inf amounted to 1.4 ± 0.89 h. In “in vivo” (iv), the MRT last was 1.3 ± 0.8 h; the Tmax was 0.03 h; the Vd was 12.8 L and 0.314 L/kg; the clearance is 128 mL/min and 9.84 mL/min/kg. This compound showed a half-life in the series “in vivo” (iv) of 1.37 ± 0.82 h. Moreover, in “in vivo” (other: supralingual), the AUC(0-inf) amounted to 102 ± 57.4 ng·h/mL, the AUC(0-t) turned out to be 97.3 ± 54.4 ng·h/mL, the Cmax is 59.4 ± 7.32 ng/mL and the MRT inf stood at 1.73 ± 0.82 h. Moreover, in “in vivo” (other: supralingual), the MRT last amounted to 1.5 ± 0.71 h, the Tmax was found to be 0.62 ± 0.58 h, the Vd came out at 17.2 ± 7.7 L and the clearance is 199 mL/min. Moreover, the half-life in the series “in vivo” (other: supralingual) is 1.13 ± 0.5 h. In “in vivo” (po), the AUC(0-inf) came out at 91.3 ± 48.6 ng·h/mL, the AUC(0-t) turned out to be 90 ± 48.7 ng·h/mL, the Cmax was found to be 45.9 ± 7.6 ng/mL and the MRT inf amounted to 1.79 ± 0.74 h. In “in vivo” (po), the MRT last was determined as 1.71 ± 0.75 h, the Tmax was 0.71 ± 0.53 h and the half-life was 0.92 ± 0.41 h. Moreover, the Oral bioavailability result in series [3] is “about 70%”. Further, the “fu (plasma unbound fraction)” value in series [4] is given as 0.083 ^c.

On to `Cc1ccc(-c2nc3ccc(C)cn3c2CC(=O)N(C)C)cc1` [zolpidem], for which the “Estimated absorption via the oral mucosa” value in series [5] is on record as “about 18%”.
